This is an account of results in patent US6878700B1, “Cell adhesion-inhibiting antiinflammatory and immune-suppressive compounds” (Abbott Laboratories, priority 1998, dated 2005).

Where a name gives a salt, the structure may show the parent alone.

One data set is described as follows: Water solubility of the isolated potassium salt. It is filed as physicochemical. Conditions: solid obtained from the acid with KOH in MeOH (potassium salt). The method, then:
The compound of Example 137 was hydrolyzed using an excess of aqueous 10% NaOH in methanol, stirring overnight. The reaction mixture was concentrated in vacuo, water was added, and the solution was extracted with ether. The mixture was acidified; the resultant solid was collected by filtration and dried overnight in a vacuum oven, giving a white solid, m.p. 166-171C. ^1H-NMR (DMSO 300 MHz) δ 1.17 (t, J=7 Hz, 3H), broad peaks totaling 9 protons at 1.32-1.48, 1.51-1.78, 1.90-2.04, 2.25-2.50, 2.80-2.90, 2.95-3.17, 3.45-3.51, 3.95-4.19, 4.41-4.51, 4.06 (q, J=7 Hz, 1H), 6.80 (d, J=9 Hz, 1H), 7.01 (t, J=7 Hz, 1H), 7.15 (d, J=8 Hz, 1H), 7.26-7.40 (m, 2H), 7.40-7.48 (m, 1H), 7.51 (dd, J=9 Hz, 2 Hz, 1H), 7.99 (d, J=9 Hz, 1H). Anal. Calcd. for C23H24ClNO4S: C, 61.94; H, 5.42; N, 3.14. Found: C, 61.75; H, 5.65; N, 3.15. The resultant acid (303 mg, 0.631 mmol) was dissolved in 3 mL MeOH. A KOH solution (38 mg, 0.595 mmol, of 87.6% KOH) in 1 ml MeOH was added. The resulting solution was concentrated in vacuo, and 5 mL ether was added. The mixture was stirred for one hour to form a powder, which was filtered and dried in the vacuum oven at 60C to yield 307 mg of a solid, water soluble product. […]
Take `CCOc1ccccc1Sc1ccc(/C=C/C(=O)N2CCCC(C(=O)O)C2)cc1Cl` (stereo not shown) [Example 155, (2-Ethoxyphenyl)-[2-chloro-4-(E-[(3-carboxypiperidin-1-yl)carbonyl]ethenyl)phenyl]sulfide]: the solubility in water result is recorded as “water soluble”.

Take `CCOc1ccccc1Sc1ccc(/C=C/C(=O)N2CCCC(C(=O)O)C2)c(Cl)c1Cl` (stereo not shown) [Example 343]: the solubility in water result is reported as “water-soluble”.

Test in another data set: not given
Details: not given
Broadly, the melting point is the temperature of the solid-liquid transition. On to `O=C(O)CN1CCN(C(=O)/C=C/c2ccc(Sc3ccc4c(c3)OCCO4)c([N+](=O)[O-])c2)CC1` (as salt: salt) [Example 221, (Benzodioxan-6-yl)[2-nitro-4-(E-((4-carboxymethylpiperazin-1-yl)carbonyl)ethenyl)phenyl]sulfide], for which the melting point was 120 °C (dec.).

`CCOc1ccccc1Sc1ccc(/C=C/C(=O)N2CCCC(C(=O)O)C2)cc1Cl` (stereo not shown) [Example 155, (2-Ethoxyphenyl)-[2-chloro-4-(E-[(3-carboxypiperidin-1-yl)carbonyl]ethenyl)phenyl]sulfide] yielded a melting point of 166 to 171 °C.

Regarding `CCOc1ccccc1Sc1ccc(/C=C/C(=O)N2CCCCC2C(=O)O)cc1Cl` (stereo not shown) [Example 158, (2-Ethoxyphenyl)-[2-chloro-4-(E-[(2-carboxypiperidin-1-yl)carbonyl]ethenyl)phenyl]sulfide], the melting point is 170 to 171 °C.

Turning to `CCOC(=O)C1CCCN(C(=O)/C=C/c2ccc(Sc3ccc4c(c3)OCCO4)c([N+](=O)[O-])c2)C1` (stereo not shown) [Example 197, (Benzodioxan-6-yl)[2-nitro-4-(E-((3-carboethoxypiperidin-1-yl)carbonyl)ethenyl)phenyl]sulfide], the melting point was in the range of 73 to 75 °C.

`CCOC(=O)C1CCCCN1C(=O)/C=C/c1ccc(Sc2ccc3c(c2)OCCO3)c([N+](=O)[O-])c1` (stereo not shown) [Example 203, (Benzodioxan-6-yl)[2-nitro-4-(E-((2-carboethoxypiperidin-1-yl)carbonyl)ethenyl)phenyl]sulfide] registered a melting point of 74 to 75 °C.

For `CC(C)(C)OC(=O)N1CCN(C(=O)/C=C/c2ccc(Sc3ccc4c(c3)OCCO4)c([N+](=O)[O-])c2)CC1` [Example 205, (Benzodioxan-6-yl)[2-nitro-4-(E-((4-tert-butoxycarbonylpiperazin-1-yl)carbonyl)ethenyl)phenyl]sulfide], the melting point fell in the range of 165 to 167 °C.

For the molecule `O=C(O)C1CCCCN1C(=O)/C=C/c1ccc(Sc2ccc3c(c2)OCCO3)c([N+](=O)[O-])c1` (stereo not shown) [Example 220, (Benzodioxan-6-yl)[2-nitro-4-(E-((2-carboxypiperidin-1-yl)carbonyl)ethenyl)phenyl]sulfide], the melting point is 165 °C (dec.).

In the case of `COC(=O)C1CN(C(=O)OC(C)(C)C)CCN1C(=O)/C=C/c1ccc(Sc2ccc3c(c2)OCCO3)c(C(F)(F)F)c1` (stereo not shown) [Example 253, (Benzodioxan-6-yl)[2-trifluoromethyl-4-(E-((2-carbomethoxy-4-tert-butoxycarbonylpiperazin-1-yl)carbonyl)ethenyl)phenyl]sulfide], the melting point is 85 to 87 °C.

On to `COC(=O)C1CNCCN1C(=O)/C=C/c1ccc(Sc2ccc3c(c2)OCCO3)c(C(F)(F)F)c1` (stereo not shown) [Example 255, (Benzodioxan-6-yl)[2-trifluoromethyl-4-(E-((2-carbomethoxypiperazin-1-yl)carbonyl)ethenyl)phenyl]sulfide], for which the melting point fell in the range of 70 to 72 °C.

`O=C(O)C1CCN(C(=O)/C=C/c2ccc(Sc3ccc4c(c3)OCCO4)c(C(F)(F)F)c2)CC1` [Example 263, (Benzodioxan-6-yl)[2-trifluoromethyl-4-(E-((4-carboxypiperidin-1-yl)carbonyl)ethenyl)phenyl]sulfide]: the melting point is 88 °C (dec.).

Take `O=C(O)C1CCCCN1C(=O)/C=C/c1ccc(Sc2ccc3c(c2)OCCO3)c(C(F)(F)F)c1` (stereo not shown) [Example 264, (Benzodioxan-6-yl)[2-trifluoromethyl-4-(E-((2-carboxypiperidin-1-yl)carbonyl)ethenyl)phenyl]sulfide]: the melting point is 90 °C (dec.).

`COC(=O)C1CN(C(=O)/C=C/c2ccc(Sc3ccc4c(c3)OCCO4)c(C(F)(F)F)c2)CCN1C(=O)OC` (stereo not shown) [Example 269, (Benzodioxan-6-yl)[2-trifluoromethyl-4-(E-((3-carbomethoxy-4-methoxycarbonylpiperazin-1-yl)carbonyl)ethenyl)phenyl]sulfide]: the melting point is 56 °C (dec.).

For `COC(=O)N1CCN(C(=O)/C=C/c2ccc(Sc3ccc4c(c3)OCCO4)c(C(F)(F)F)c2)C(C(=O)O)C1` (stereo not shown) [Example 271, (Benzodioxan-6-yl)[2-trifluoromethyl-4-(E-((2-carboxy-4-methoxycarbonylpiperazin-1-yl)carbonyl)ethenyl)phenyl]sulfide], the melting point was 102 °C (dec.).

Take `Nc1ccccc1Sc1ccc(/C=C/C(=O)N2CCOCC2)c(Cl)c1Cl` [Example 410, (2-Aminophenyl)[2,3-dichloro-4-(E-((4-morpholinyl)carbonyl)ethenyl)phenyl]sulfide]: the melting point is 230 to 240 °C (dec.).
